Laboratory results from publication PMC2733134, “A novel hydroxyfuroic acid compound as an insulin receptor activator - structure and activity relationship of a prenylindole moiety to insulin receptor activation” (Journal of Biomedical Science, 2009).
Several values for one entry are separate records, joined by “and”; a condition that tells them apart may be missing. Identical values can stand only once. Like-named read-outs stand apart in the source and are kept apart here. Values belong to the molecule of their own block, whether it stands above or below them.

Columns and labels:
insulin receptor = details: cited from earlier work
human insulin receptor = target: T1, human insulin receptor (Homo sapiens, UniProt P06213); assay: Insulin receptor activation assay (CHO cells overexpressing human insulin receptor, Ab-3 capture, tyrosine kinase activity); format: cell-based; details: for Study 1, cpm, phosphoryl incorporation by tyrosine kinase activities / Study 2, cpm, phosphoryl incorporation by tyrosine kinase activities: hydroxyfuroic acid compounds 100 μM, insulin 10 nM; for % activation, tyrosine kinase activity compared to 10 nM insulin stimulation (Study 2) / % activation, tyrosine kinase activity compared to 10 nM insulin stimulation (Study 1): test concentration 100 μM
T1 construct: expressed in transfected cells; host or cells: CHO cells (gift of Dr. Richard Roth, Stanford University)
Method: The insulin receptor activation assay is based on the assay described by Zhang et al. with minor modifications. Briefly, approximately 100,000 CHO cells overexpressing human recombinant insulin receptor were suspended in 100 μl of Ham's F-12 medium containing 10% fetal bovine serum (FBS) and seeded into each well of a 96-well plate. Cells were incubated at 37°C with 5% CO2 aeration overnight. CHO cells were rinsed with phosphate buffered saline (PBS) 3 times and starved in serum free Ham's F-12 medium for 2 hours before being stimulated with desired concentration of insulin or test compound for 20 minutes. Test compounds were predissolved in DMSO as 100× stocks and serially diluted when necessary. Stimulated CHO cells were then rinsed 3 times with PBS and lysed in 60 μl of lysis buffer. Fifty μl of the lysate was transferred to a well on a Flexible Assay Plate that was precoated with Ab-3 antibody recognizing the β-subunit of insulin receptor. The well was then rinsed 3 times with Tris buffered saline (TBS) containing 0.1% Tween20 and thrown dried by hand before 10 μl of tyrosine kinase reaction mixture (50 mM HEPES, pH7.4, 5 mM MgCl2, 5 mM MnCl2, 1 mg/mL polyGlu/Tyr and 250,000 cpm γ-P^33 ATP/well) was added. The reaction was carried out at 25°C for 40 minutes and terminated by adding 50 μl ice cold 100 mM phosphoric acid. Fifty μl of the stopped reaction mixture was then transferred to an inch square P81 paper. The P81 paper was air dried and then rinsed in Millipore water 5 times to remove leftover radioactive ATP and product ADP. Five mL of scintillation cocktail was added to the paper before the count was read in a liquid scintillation counter.
(§1) The 50% effective or inhibition concentrations were determined with the standard curve analysis of SigmaPlot 8.02. The nonlinear regression equation is y = min+(max-min)/(1+(x/EC50)^Hill Slope) where y is the observed responses; x is the dose concentrations; max and min are approximated by the program automatically during the calculation.
To validate the insulin receptor activation assay, dose response curve of bovine insulin was determined. […] In subsequent experiments, we routinely included 1, 10, and 100 nM insulin as standard reference. […] For simplicity, the efficacies of hydroxyfuroic acid compounds were expressed as percentage of activities comparing to the response provided by 10 nM insulin stimulation in parallel. To distinguish human insulin receptor kinase from other tyrosine kinases in CHO cells, Ab-3, a human insulin receptor β-subunit specific monoclonal antibody, was used to absorb insulin receptor from the CHO cell lysate, so the radioactivity catalyzed by captured tyrosine kinase is attributable to insulin receptor tyrosine kinase activity.

in vitro = format: cell-based; details: Chinese hamster, LC50, cytotoxicity
Method: (§2) Approximately 5,000 CHO cells suspended in 100 μl D-MEM containing 10% FBS were seeded in each well of a 96-well plate overnight before the cytotoxicity assay. Test compounds were predissolved as 10× solution in 10% DMSO, 10% ethanol, 80% PBS and 10 μl of this 10× test compound solution were added to each well. After 24 hours incubation, medium containing test compound was removed by aspiration and 3 rinses of PBS. One hundred μl of serum medium was replenished before 20 μl methylthiazolyldiphenyl-tetrazolium bromide (MTT, 2.5 mg/mL) and 1 μl phenazine methosulfate (PMS, 50 μM) was added to each well before a 3-hour further incubation at 37°C. Optical density at 450 nm was measured with an ELISA reader. LC50 is defined as the concentration of compound that causes 50% drop of cell viability in this test.

EGF receptor (ErbB1) [1] = target: T2, EGF receptor (ErbB1) (Homo sapiens, UniProt P00533); assay: EGF receptor (ErbB1) tyrosine kinase activity assay; format: biochemical; details: Fig. 6B
T2 construct: purchased R&D systems (Minneapolis, MN)
T2 sequence (P00533 25-1210): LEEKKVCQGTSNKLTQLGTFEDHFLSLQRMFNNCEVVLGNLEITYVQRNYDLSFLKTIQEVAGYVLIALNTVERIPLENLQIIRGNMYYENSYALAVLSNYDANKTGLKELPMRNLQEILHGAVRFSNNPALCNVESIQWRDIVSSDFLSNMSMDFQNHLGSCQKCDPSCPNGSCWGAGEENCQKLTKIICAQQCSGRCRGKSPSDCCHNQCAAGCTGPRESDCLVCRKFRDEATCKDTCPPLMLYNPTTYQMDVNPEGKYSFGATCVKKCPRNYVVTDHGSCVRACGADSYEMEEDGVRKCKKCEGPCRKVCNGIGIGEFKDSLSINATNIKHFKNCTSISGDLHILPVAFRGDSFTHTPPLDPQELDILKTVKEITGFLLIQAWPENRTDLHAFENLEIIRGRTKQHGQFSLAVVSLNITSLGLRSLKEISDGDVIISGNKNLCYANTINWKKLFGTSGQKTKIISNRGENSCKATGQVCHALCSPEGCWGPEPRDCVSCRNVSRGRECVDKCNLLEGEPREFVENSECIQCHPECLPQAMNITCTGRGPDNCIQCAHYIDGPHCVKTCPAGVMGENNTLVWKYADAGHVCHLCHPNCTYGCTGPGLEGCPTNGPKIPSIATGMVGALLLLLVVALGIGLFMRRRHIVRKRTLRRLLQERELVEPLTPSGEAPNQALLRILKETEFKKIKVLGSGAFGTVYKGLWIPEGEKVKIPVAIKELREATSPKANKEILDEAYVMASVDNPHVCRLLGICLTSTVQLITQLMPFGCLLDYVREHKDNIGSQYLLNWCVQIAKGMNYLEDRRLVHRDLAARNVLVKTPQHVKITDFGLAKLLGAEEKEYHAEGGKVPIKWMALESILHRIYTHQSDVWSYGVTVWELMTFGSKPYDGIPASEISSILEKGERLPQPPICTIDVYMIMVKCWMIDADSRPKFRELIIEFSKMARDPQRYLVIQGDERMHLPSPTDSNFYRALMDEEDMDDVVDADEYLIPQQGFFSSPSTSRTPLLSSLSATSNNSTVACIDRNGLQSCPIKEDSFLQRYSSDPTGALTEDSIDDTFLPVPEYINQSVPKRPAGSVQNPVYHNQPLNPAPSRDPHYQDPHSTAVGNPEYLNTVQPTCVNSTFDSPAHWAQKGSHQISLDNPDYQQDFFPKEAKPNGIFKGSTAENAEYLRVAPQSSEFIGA
Method: The reaction condition of EGF receptor (ErbB1) was similar to that of IGF-1 receptor reaction except 0.04 μg/μl polyGlu/Tyr substrate and 0.3 ng/μl EGF receptor (ErbB1) were used, and the reaction time was 15 minutes. All other conditions or processes were the same. The EGF receptor tyrosine kinase reaction was carried out with subsaturating concentrations of substrates for better sensitivity to activator or inhibitor influence.
as §1

FGF receptor 3 = target: T3, FGF receptor 3 (Homo sapiens, UniProt P22607); assay: FGF receptor 3 tyrosine kinase activity assay; format: biochemical; details: Fig. 6C
T3 construct: purchased R&D systems (Minneapolis, MN)
T3 sequence (P22607 23-806): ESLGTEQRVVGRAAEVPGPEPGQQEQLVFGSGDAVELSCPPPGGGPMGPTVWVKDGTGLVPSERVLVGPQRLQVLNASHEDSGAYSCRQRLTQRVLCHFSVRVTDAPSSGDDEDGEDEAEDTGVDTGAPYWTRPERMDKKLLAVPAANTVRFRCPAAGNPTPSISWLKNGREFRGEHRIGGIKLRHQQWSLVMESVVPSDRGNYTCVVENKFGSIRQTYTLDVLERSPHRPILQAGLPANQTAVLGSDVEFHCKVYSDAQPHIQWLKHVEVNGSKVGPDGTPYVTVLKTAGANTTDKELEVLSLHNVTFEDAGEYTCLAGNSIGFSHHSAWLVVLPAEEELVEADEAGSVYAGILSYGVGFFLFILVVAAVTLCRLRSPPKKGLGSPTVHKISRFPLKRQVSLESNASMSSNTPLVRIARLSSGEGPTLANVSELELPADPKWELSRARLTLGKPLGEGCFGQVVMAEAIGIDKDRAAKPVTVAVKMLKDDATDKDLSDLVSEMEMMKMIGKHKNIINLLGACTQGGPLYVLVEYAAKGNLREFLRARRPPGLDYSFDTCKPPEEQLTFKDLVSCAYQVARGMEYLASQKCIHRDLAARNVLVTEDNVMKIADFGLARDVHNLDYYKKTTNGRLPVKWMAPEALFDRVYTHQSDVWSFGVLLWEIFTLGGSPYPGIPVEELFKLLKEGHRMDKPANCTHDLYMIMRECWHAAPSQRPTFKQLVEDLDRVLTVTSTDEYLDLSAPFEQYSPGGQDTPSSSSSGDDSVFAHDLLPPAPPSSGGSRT
Method: The reaction condition of FGF receptor 3 was similar to that of EGF receptor except 0.1 μg/μl polyGlu/Tyr substrate and 0.05 ng/μl FGF-receptor 3 were used instead. All other conditions or processes were the same. The FGF receptor 3 tyrosine kinase reaction was carried out with subsaturating concentrations of substrates for better sensitivity to activator or inhibitor influence.
as §1

CHO cells = assay: in vitro; format: cell-based; details: Chinese hamster, 24 h
Method: as §2

[2] = target: T4, Recombinant human IGF-1 receptor (Homo sapiens, UniProt P08069); assay: IGF-1 receptor tyrosine kinase activity assay; format: biochemical; details: mid μM of compound, Fig. 6A
T4 construct: purchased R&D systems (Minneapolis, MN)
T4 sequence (P08069 31-1367): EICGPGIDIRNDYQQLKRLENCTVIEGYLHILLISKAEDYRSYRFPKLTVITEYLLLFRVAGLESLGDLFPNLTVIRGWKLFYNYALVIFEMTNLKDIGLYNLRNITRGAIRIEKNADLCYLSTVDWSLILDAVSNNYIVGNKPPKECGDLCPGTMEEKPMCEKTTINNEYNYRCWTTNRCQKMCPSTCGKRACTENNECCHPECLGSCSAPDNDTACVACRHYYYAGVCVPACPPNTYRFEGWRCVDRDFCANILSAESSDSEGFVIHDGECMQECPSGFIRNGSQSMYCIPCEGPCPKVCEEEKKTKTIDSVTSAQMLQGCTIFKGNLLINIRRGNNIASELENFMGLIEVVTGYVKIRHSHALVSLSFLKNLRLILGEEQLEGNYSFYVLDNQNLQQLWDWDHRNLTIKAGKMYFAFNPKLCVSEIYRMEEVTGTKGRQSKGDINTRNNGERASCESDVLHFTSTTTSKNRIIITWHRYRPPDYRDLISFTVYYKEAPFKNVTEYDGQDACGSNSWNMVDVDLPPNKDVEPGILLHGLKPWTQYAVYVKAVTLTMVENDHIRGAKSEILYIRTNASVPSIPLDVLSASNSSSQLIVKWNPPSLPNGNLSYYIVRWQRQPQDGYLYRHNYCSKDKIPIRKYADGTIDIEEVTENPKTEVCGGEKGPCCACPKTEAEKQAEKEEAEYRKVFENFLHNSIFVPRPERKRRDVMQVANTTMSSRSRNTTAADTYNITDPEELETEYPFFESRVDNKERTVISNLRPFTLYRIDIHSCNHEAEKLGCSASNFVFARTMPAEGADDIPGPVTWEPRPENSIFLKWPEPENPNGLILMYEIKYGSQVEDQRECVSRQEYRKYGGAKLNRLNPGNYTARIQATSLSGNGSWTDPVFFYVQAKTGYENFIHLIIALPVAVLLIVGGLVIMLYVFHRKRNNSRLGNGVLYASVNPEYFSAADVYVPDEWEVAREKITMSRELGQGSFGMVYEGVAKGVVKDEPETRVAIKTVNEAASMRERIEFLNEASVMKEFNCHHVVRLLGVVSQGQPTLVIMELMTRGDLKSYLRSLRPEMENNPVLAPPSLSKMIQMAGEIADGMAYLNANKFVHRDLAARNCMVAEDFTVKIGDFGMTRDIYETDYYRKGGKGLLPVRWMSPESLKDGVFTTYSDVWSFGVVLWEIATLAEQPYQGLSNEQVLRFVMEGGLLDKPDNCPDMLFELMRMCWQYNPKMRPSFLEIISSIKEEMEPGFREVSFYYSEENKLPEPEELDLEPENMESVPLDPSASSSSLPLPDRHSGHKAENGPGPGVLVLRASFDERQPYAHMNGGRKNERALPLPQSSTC
Method: The reaction was carried out at pH7.0 in the presence of 50 mM HEPES, 5 mM MgCl2, 0.01 μg/μl polyGlu/Tyr substrate, 5 mM DTT, 250,000 cpm radioactive ATP, and 0.4 ng/μl IGF-1R tyrosine kinase with a final volume of 100 μl at 37°C for 10 minutes. The IGF-1 receptor tyrosine kinase reaction was carried out with subsaturating concentrations of substrates for better sensitivity to activator or inhibitor influence. Test compound D-410639 was predissolved in DMSO as 20× stock. The reaction was stopped by the addition of 100 μl of 25 mM EDTA (pH8), and 85 μl of the stopped reaction mix was blotted on an inch square P81 paper. P81 paper was air dried before rinsed 5 times in Millipore water to remove non-protein phosphorus. Five mL scintillation cocktail was added to the P81 paper before the counts were read with a liquid scintillation counter.
as §1

EGF receptor (ErbB1) [3] = system: EGF receptor (ErbB1); parameters: method as in Zhang et al. [19]; details: ref Zhang et al. [19]; cited from earlier work
db/db mice = system: db/db mice; parameters: method as in PMID 10320380, PMID 11237209; details: cited from earlier work
[4] = read-out: EC50, insulin receptor activation, reported previously
[5] = side by side comparison, Fig. 3, read-out: EC50, insulin receptor tyrosine kinase activation

EC50 (human insulin receptor; [5]): 39 µM and 38.9 µM
Molecule: Cn1cc(C2=C(O)C(=O)C(c3ccccc3)=C(O)C2=O)c2ccccc21 [compound 2, phenylindolyldihydroxyquinone, reference compound]
EC50 (insulin receptor; [4]): 0.3 µM
CC50 at 24 h (in vitro): 66.5 µM

EC50 (human insulin receptor; assay validation dose response curve, read-out: EC50 of bovine insulin, insulin receptor activation): ~0.0051 µM
Molecule: bovine insulin: bovine insulin, standard reference of the insulin receptor activation assay
EC50 (insulin receptor; ref Liu et al. [21], read-out: EC50 of insulin, reported): 0.001 µM
Study 1, cpm, phosphoryl incorporation by tyrosine kinase activities (human insulin receptor): 6250 cpm
Study 2, cpm, phosphoryl incorporation by tyrosine kinase activities (human insulin receptor): 1632.5 cpm

Study 2, cpm, phosphoryl incorporation by tyrosine kinase activities (human insulin receptor): 659.3 cpm
% activation, tyrosine kinase activity compared to 10 nM insulin stimulation (Study 2) (human insulin receptor): 40.4%
Molecule: O=C(O)c1oc(C(=O)c2c[nH]c3c(CCCC(CO)CO)cccc23)c(O)c1-c1c[nH]c2ccccc12 [Compound D-410642]

IC50 (EGF receptor (ErbB1) [1]): 1.8 µM
IC50 (FGF receptor 3): 26.5 µM
insulin receptor activation efficacy relative to 10 nM insulin (range over Study 1 and 2) (human insulin receptor; 100 μM, both studies): 72-89%
Study 1, cpm, phosphoryl incorporation by tyrosine kinase activities (human insulin receptor): 5590 cpm
% activation, tyrosine kinase activity compared to 10 nM insulin stimulation (Study 1) (human insulin receptor): 89.4%
Study 2, cpm, phosphoryl incorporation by tyrosine kinase activities (human insulin receptor): 1181 cpm
% activation, tyrosine kinase activity compared to 10 nM insulin stimulation (Study 2) (human insulin receptor): 72.3%
EC50 (human insulin receptor; [5]): 33 µM and 32.9 µM
increase of IGF-1 receptor activity from the base line [2]: 60-70%
Molecule: O=C(O)c1oc(C(=O)c2c[nH]c3c(CCCCCO)cccc23)c(O)c1-c1c[nH]c2ccccc12 [Compound D-410639]
CC50 at 24 h (in vitro): ~296 µM
CC50 (CHO cells): 296 µM
fold less cytotoxic than DMAQ B1 (CHO cells): 128 fold

Study 2, cpm, phosphoryl incorporation by tyrosine kinase activities (human insulin receptor): 792.7 cpm
% activation, tyrosine kinase activity compared to 10 nM insulin stimulation (Study 2) (human insulin receptor): 48.6%
Molecule: CCCCCc1cccc2c(C(=O)c3oc(C(=O)O)c(-c4c[nH]c5ccccc45)c3O)c[nH]c12 [Compound D-410641]

Study 2, cpm, phosphoryl incorporation by tyrosine kinase activities (human insulin receptor): 357.3 cpm
% activation, tyrosine kinase activity compared to 10 nM insulin stimulation (Study 2) (human insulin receptor): 21.9%
Molecule: O=C(O)CCc1cccc2c(C(=O)c3oc(C(=O)O)c(-c4c[nH]c5ccccc45)c3O)c[nH]c12 [Compound D-410644]

Study 2, cpm, phosphoryl incorporation by tyrosine kinase activities (human insulin receptor): 799 cpm
% activation, tyrosine kinase activity compared to 10 nM insulin stimulation (Study 2) (human insulin receptor): 48.9%
Molecule: O=C(O)CCCCc1cccc2c(C(=O)c3oc(C(=O)O)c(-c4c[nH]c5ccccc45)c3O)c[nH]c12 [Compound D-410643]

Further lines, the molecule ahead of its results:

Molecule: O=C(O)c1oc(C(=O)c2c[nH]c3c(CCCO)cccc23)c(O)c1-c1c[nH]c2ccccc12 [Compound D-410637]
% activation, tyrosine kinase activity compared to 10 nM insulin stimulation (Study 1) (human insulin receptor): 18.9%

Molecule: O=C(O)c1oc(C(=O)c2c[nH]c3c(CCCCO)cccc23)c(O)c1-c1c[nH]c2ccccc12 [Compound D-410638]
% activation, tyrosine kinase activity compared to 10 nM insulin stimulation (Study 1) (human insulin receptor): 31.3%

Molecule: O=C(O)c1sc(C(=O)c2c[nH]c3c(CCCCCO)cccc23)c(O)c1-c1c[nH]c2ccccc12 [Compound D-410640]
dose response of insulin receptor activation efficacy (human insulin receptor; normalized against 10 nM insulin, Fig. 4): levels off at 50 μM and tapers off by 100 μM

Molecule: C=CC(C)(C)c1[nH]c2ccccc2c1C1=C(O)C(=O)C(c2c[nH]c3c(CC=C(C)C)cccc23)=C(O)C1=O [DMAQ B1, Demethylasterriquinone B1]
EC50 (insulin receptor; [4]): 5 µM
CC50 at 24 h (in vitro): 2.3 µM
activation potential on EGF receptor (ErbB1) (EGF receptor (ErbB1) [3]): minor activation potential
effect on blood glucose (db/db mice): lower blood glucose in db/db mice

Molecule: diisoprenylindolylasterriquinone [Compound L-767827]
insulin receptor tyrosine kinase activation potential (insulin receptor): no insulin receptor tyrosine kinase activation potential
